Assay results as given in US8785425B2, “11β-hydroxyandrosta-4-ene-3-ones” (Sun Pharma Advanced Research Company Ltd., priority 2006, dated 2014).
Marks after values point to notes of the source that are not given here. One block for each compound: values may come before it.

Key:
[1] = system: cotton pellet induced granuloma; assay: Cotton pellet granuloma (compound impregnated in pellet); assay type: in vivo; conditions: SD rats
Experimental: SD rats were used for assessing anti-inflammatory activity of test compound using cotton pellet granuloma method. Sterilized cotton pellets weighing 20 mg were prepared. Test compounds were dissolved in acetone so as to get the required quantity for each cotton pellet in 500 μl. Different pellets were impregnated with 500 μl of acetone to contain required quantity of test compounds and allowed to dry. Vehicle control pellets were impregnated with 500 μl acetone. Rats were made into different groups. Two cotton pellets were surgically implanted into the scapular region of each rat. On sixth day of such implantation, pellets along with granuloma were taken out. Thymus gland was also separated from each animal and weighed. The pellets with granuloma were dried for 20 hrs at 60° C. and weighed. Mean weights of dry granuloma and thymus, body weight gain/100 g body weights were calculated.

[2] = target: T1, glucocorticoid receptors (Homo sapiens, UniProt P04150); assay: Glucocorticoid receptor binding assay ([3H]dexamethasone radioligand); conditions: HeLa cells transfected with glucocorticoid receptors
T1 construct: host or cells: Human HeLa cells
T1 sequence (P04150 1-777): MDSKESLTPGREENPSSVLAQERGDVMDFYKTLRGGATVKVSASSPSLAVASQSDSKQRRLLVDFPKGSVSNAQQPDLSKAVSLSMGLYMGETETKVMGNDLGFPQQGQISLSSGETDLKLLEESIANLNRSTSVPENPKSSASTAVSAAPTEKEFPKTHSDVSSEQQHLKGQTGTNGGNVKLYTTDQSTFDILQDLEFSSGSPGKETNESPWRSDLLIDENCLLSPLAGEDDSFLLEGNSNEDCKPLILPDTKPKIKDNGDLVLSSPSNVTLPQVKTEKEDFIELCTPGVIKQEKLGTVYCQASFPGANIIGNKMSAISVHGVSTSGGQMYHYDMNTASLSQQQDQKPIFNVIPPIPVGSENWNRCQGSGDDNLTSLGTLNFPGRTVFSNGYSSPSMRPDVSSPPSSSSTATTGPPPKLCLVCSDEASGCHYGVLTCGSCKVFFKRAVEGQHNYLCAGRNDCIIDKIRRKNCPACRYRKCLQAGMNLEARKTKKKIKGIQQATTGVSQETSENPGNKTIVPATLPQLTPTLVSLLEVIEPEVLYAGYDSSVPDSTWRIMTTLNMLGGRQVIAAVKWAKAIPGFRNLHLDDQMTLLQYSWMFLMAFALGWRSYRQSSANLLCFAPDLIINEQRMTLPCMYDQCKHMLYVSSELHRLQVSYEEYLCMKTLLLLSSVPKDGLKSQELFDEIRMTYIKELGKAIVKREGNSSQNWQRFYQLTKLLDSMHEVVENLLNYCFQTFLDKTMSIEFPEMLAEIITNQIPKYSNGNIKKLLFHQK
Experimental: The steroid receptor binding assay were performed by MDS Pharma Services at their Taipei (Taiwan) pharmacology laboratory.
The activity of test compounds on glucocorticoid receptor was assessed using radioligand binding assays. […] Free [^3H]dexamethasone was removed from the medium by centrifugation and concentration of receptor bound ligand was determined in the supernatant by liquid scintillation counting.
The % inhibition was evaluated using a single concentration of test compound and the corresponding radiolabeled ligand. Results are presented as the percent inhibition of specific binding. The values are average of duplicate determinations for each concentration.

[3] = system: Sephadex induced lung edema; assay: in vivo; conditions: SD rat
Experimental: Sephadex G-200 was prepared in sterile saline (10 mg/ml) and allowed to swell for at least 3 days at room temperature. Test compounds were prepared as suspensions by grinding and sonicating the solid in chilled saline. All the compounds were administered intratracheally at 24 hrs and 2 hrs prior to intratracheal administration of Sephadex (5 mg/kg) under light ether anesthesia. Vehicle control animals were administered vehicle instead of Sephadex. At 24 hr after Sephadex instillation, lung and thymus were excised from individual animals and weighed. Wet weight of lung and thymus was corrected for 100 g of initial body weight. The percentage increase in lung weight caused by Sephadex and its inhibitions by the compounds, were calculated. The percentage inhibitions of thymus compared to vehicle control group were also calculated.

[4] = system: croton oil induced ear edema; assay: Croton oil ear edema; assay type: in vivo, Mice (male, CD-1); conditions: inhibition at 1.6 μg, applied to ear, mice
Experimental: Mice (male, CD-1) were made into different groups. Test compounds were dissolved in pyridine-water-acetone (4:2:14) solution […] of compound or vehicle solution was applied to the left ear of the mice. The right ear of each mouse was applied simultaneously with 10 μl of pyridine:water:acetone (4:2:14) solution. After 2 hrs of compound or vehicle application, 10 μl of croton oil solution was applied to the left ear of all animals. After 6 hr of croton oil treatment the animals were sacrificed; ears were excised and weighed separately.

[5] = system: liver glycogen deposition; assay type: in vivo, Male Sprague Dawley rats; conditions: 3 mg/kg intratracheally, 2 doses 24 hrs apart, adrenalectomized rats
Experimental: Male Sprague Dawley rats, weighing 190-220 g were bilaterally adrenalectomized and maintained on 0.9% saline solution throughout the experiment. On day 5th and 6th of adrenalectomy, animals were made into different groups, test compounds prepared in cold saline (sonicated for 30 min) were instilled intratracheally 2 doses@3 mg/kg, 24 hrs apart. At 15 hrs after the last treatment, animals were sacrificed and livers were excised and weighed. The glycogen content of the livers was determined by anthrone method. Briefly, a weighed quantity of liver tissue was homogenized with 5% trichloroacetic acid, supernatant mixed with ethanol and kept overnight for precipitation. The glycogen thus extracted was estimated as glucose generated after acid hydrolysis by addition of anthrone reagent at 620 nm. Glycogen content was expressed as mg/100 g liver.

Compound: 6α,9α-Difluoro-11β-hydroxy-16α-methyl-3-oxo-17α-propionyloxyandrosta-1,4-diene-17β-carbonylsulfenic acid (4-trifluoromethylphenyl)methyl eseter. [IC.8]
Mean % Inhibition of Granuloma ([1]; dose 3 mcg per pellet): 45.15%
Thymus wt. (% Decrease) ([1]; dose 3 mcg per pellet): 3.38%

Compound: CCC(=O)O[C@]1(C(=O)SCC(=O)c2ccc(C(F)(F)F)cc2)[C@H](C)CC2C3C[C@H](F)C4=CC(=O)C=C[C@]4(C)[C@@]3(F)[C@@H](O)C[C@@]21C (stereo partly drawn) [IA.38, S-[2-Oxo-2-(4-trifluoromethylphenyl)ethyl]6α,9α-difluoro-11β-hydroxy-16α-methyl-3-oxo-17α-propionyloxyandrosta-1,4-diene-17β-carbothioate]
Mean % Inhibition of Granuloma ([1]; dose 10 mcg per pellet): 67.17%

Compound: CCC(=O)O[C@]1(C(=O)OCC(=O)c2ccccc2)[C@H](C)CC2C3C[C@H](F)C4=CC(=O)C=C[C@]4(C)[C@@]3(F)[C@@H](O)C[C@@]21C (stereo partly drawn) [IA.44, 2-Phenyl-2-oxoethyl 6α,9α-difluoro-11β-hydroxy-16α-methyl-3-oxo-17α-propionyloxyandrosta-1,4-diene-17β-carboxylate]
Mean % Inhibition of Granuloma ([1]; dose 1000 mcg per pellet): 71.79%

Compound: CCC(=O)O[C@]1(C(=O)SC(C)(C)C(=O)c2ccccc2)[C@H](C)CC2C3C[C@H](F)C4=CC(=O)C=C[C@]4(C)[C@@]3(F)[C@@H](O)C[C@@]21C (stereo partly drawn) [IA.59, S-[1,1-Dimethyl-2-oxo-2-phenylethyl]6α,9α-difluoro-11β-hydroxy-16α-methyl-3-oxo-17α-propionyloxyandrosta-1,4-diene-17β-carbothioate]
Mean % Inhibition of Granuloma ([1]; dose 1000 mcg per pellet): 76.86%

Compound: CCC(=O)O[C@]1(C(=O)SCC#CCO)[C@H](C)CC2C3C[C@H](F)C4=CC(=O)C=C[C@]4(C)[C@@]3(F)[C@@H](O)C[C@@]21C (stereo partly drawn) [IB.2, S-(4-Hydroxy-but-2-ynyl) 6α,9α-difluoro-11β-hydroxy-16α-methyl-3-oxo-17α-propionyloxyandrosta-1,4-diene-17β-carbothioate]
inhibition at 0.003 µM ([2]; % inhibition at 3 nM): 55%

Compound: C[C@@H]1CC2C3C[C@H](F)C4=CC(=O)C=C[C@]4(C)[C@@]3(F)[C@@H](O)C[C@]2(C)[C@@]1(OC(=O)c1ccco1)C(=O)SC/C=C\CO (stereo partly drawn) [IB.15, S-(4-Hydroxy-(Z)-but-2-enyl) 6α,9α-difluoro-17α-[(2-furanylcarbonyl)oxy]-11β-hydroxy-16α-methyl-3-oxoandrosta-1,4-diene-17β-carbothioate]
inhibition at 0.01 µM ([2]; % inhibition at 10 nM): 83%
Mean % inhibition Lung edema ([3]; dose 1000 mcg/kg intratracheally): 70.3%
Mean % inhibition Lung edema ([3]; dose 3000 mcg/kg intratracheally): 71.1%

Compound: CCCCC(=O)OCC#CCSC(=O)[C@@]1(OC(=O)CC)[C@H](C)CC2C3C[C@H](F)C4=CC(=O)C=C[C@]4(C)[C@@]3(F)[C@@H](O)C[C@@]21C (stereo partly drawn) [IB.35, S-[4-n-Butylcarbonyloxy-but-2-ynyl]6α,9α-difluoro-11β-hydroxy-16α-methyl-3-oxo-17α-propionyloxyandrosta-1,4-diene-17β-carbothioate]
Mean % Inhibition (croton oil ear edema) [4]: 60.18^a %

Compound: CCOC(=O)C(=O)OC/C=C/CSC(=O)[C@@]1(OC(=O)CC)[C@H](C)CC2C3C[C@H](F)C4=CC(=O)C=C[C@]4(C)[C@@]3(F)[C@@H](O)C[C@@]21C (stereo partly drawn) [IB.44, S-[4-(2-Ethoxy-1,2-dioxoethyl)oxy-(E)-but-2-enyl]6α,9α-difluoro-11β-hydroxy-16α-methyl-3-oxo-17α-propionyloxyandrosta-1,4-diene-17β-carbothioate]
Mean % Inhibition (croton oil ear edema) [4]: 75.19^a %

Compound: C[C@@H]1CC2C3C[C@H](F)C4=CC(=O)C=C[C@]4(C)[C@@]3(F)[C@@H](O)C[C@]2(C)[C@@]1(OC(=O)c1ccco1)C(=O)SCC#CCOC(=O)N(C)C (stereo partly drawn) [IB.103, S-[4-(N,N-Dimethylaminocarbonyloxy)-but-2-ynyl]6α,9α-difluoro-17α-[(2-furanyl-carbonyl)oxy]-11β-hydroxy-16α-methyl-3-oxoandrosta-1,4-diene-17β-carbothioate]
inhibition at 0.01 µM ([2]; % inhibition at 10 nM): 78%

Compound: CC1CC2C3CC(F)C4=CC(=O)C=CC4(C)C3(F)C(O)CC2(C)C1(OC(=O)c1ccco1)C(=O)SOCc1ccc(C(F)(F)F)cc1 (stereo not drawn) [IC.6, 6α,9α-Difluoro-17α-[(2-furanylcarbonyl)oxy]-11β-hydroxy-16α-methyl-3-oxoandrosta-1,4-diene-17β-carbonylsulfenic acid (4-trifluoromethylphenyl)methyl ester.]
Mean % Inhibition of Granuloma ([1]; dose 1000 mcg per pellet): 84.96%
Thymus wt. (% Decrease) ([1]; dose 1000 mcg per pellet): 10.96%

Compound: CC1CC2C3CC(F)C4=CC(=O)C=CC4(C)C3(F)C(O)CC2(C)C1(OC(=O)c1ccco1)C(=O)SOCc1ccc(Cl)cc1 (stereo not drawn) [IC.7, 6α,9α-Difluoro-17α-[(2-furanylcarbonyl)oxy]-11β-hydroxy-16α-methyl-3-oxoandrosta-1,4-diene-17β-carbonylsulfenic acid (4-chlorophenyl)methyl ester.]
Glucocorticoid receptor binding % inhibition ([2]; % inhibition at 10 nM): 41^b %

Compound: CC1CC2C3CCC4=CC(=O)C=CC4(C)C3(F)C(O)CC2(C)C1(OC(=O)c1ccco1)C(=O)SOCc1ccc(F)cc1 (stereo not drawn) [IC.9, 9α-Fluoro-17α-[(2-furanylcarbonyl)oxy]-11β-hydroxy-16α-methyl-3-oxoandrosta-1,4-diene-17β-carbonylsulfenic acid (4-fluorophenyl)methyl ester.]
Mean % Inhibition of Granuloma ([1]; dose 3 mcg per pellet): 34.3%
Thymus wt. (% Decrease) ([1]; dose 3 mcg per pellet): 2.51%

Compound: CCC(=O)O[C@]1(C(=O)SC)[C@H](C)C[C@H]2[C@@H]3C[C@H](F)C4=CC(=O)C=C[C@]4(C)[C@@]3(F)[C@@H](O)C[C@@]21C [IC.13, 6α,9α-Difluoro-11β-hydroxy-16α-methyl-3-oxo-17α-propionyloxyandrosta-1,4-diene-17β-carbonylsulfenic acid methyl ester.]
Mean % Inhibition (croton oil ear edema) [4]: 41.79^a %

Compound: COSC(=O)C1(OC(=O)c2ccco2)C(C)CC2C3CC(F)C4=CC(=O)C=CC4(C)C3(F)C(O)CC21C (stereo not drawn) [IC.14, 6α,9α-Difluoro-17α-[(2-furanylcarbonyl)oxy]-11β-hydroxy-16α-methyl-3-oxoandrosta-1,4-diene-17β-carbonylsulfenic acid methyl ester]
Mean % Inhibition (croton oil ear edema) [4]: 61.46^a %

% Inhibition of thymus [5]: 43.51%
Glycogen content [5]: 1117.32 mg/100 g liver
Compound: C[C@@H]1C[C@H]2[C@@H]3CCC4=CC(=O)C=C[C@]4(C)[C@@]3(Cl)[C@@H](O)C[C@]2(C)[C@@]1(OC(=O)c1ccco1)C(=O)CCl [Mometasone furoate, (11β,16α)-9,21-Dichloro-17-[(2-furanylcarbonyl)oxy]-11-hydroxy-16-methylpregna-1,4-diene-3,20-dione]
